Measured values published in patent publication US20050197336A1 (Miikana Therapeutics Corporation, priority 2004, published 2005).

What was measured:
[1] = test system: MCF7 cells; assay: Whole cell cytotoxicity assay: Sulforhodamine B; format: cell-based, human; settings: Homo sapiens; compound at 100 μM; MCF7 cell growth; 48 hours with drug; SRB staining
Procedure, shortened: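 MCF7 cells in DMEM with 10% FBS were seeded 24 h before compound, then exposed to nine concentrations for 48 h at 37° C. TCA-fixed cells stained with sulforhodamine B; absorbance at 570 nm, with a time-zero plate fixed at drug addition.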

[2] = test system: Histone deacetylase (HDAC), HeLa cell nuclear extract; assay: In vitro fluorescent histone deacetylase assay (Biomol kit, HeLa cell nuclear extract); format: biochemical; settings: compound at 100 μM; HeLa cell nuclear extract as HDAC source; substrate 50 μM; 10 min at room temperature
Procedure, shortened: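 HeLa nuclear extract supplies mixed HDAC activity acting on fluorogenic substrate at 50 μM final, 10 min at room temperature before stopping. Compounds serially diluted in assay buffer, final DMSO ≤2%. Fluorescence read at ex 355/em 460 nm.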

Compound: CN1CCOc2cc(S(=O)(=O)N3CCN(c4ncc(C(=O)NO)s4)CC3)ccc21 [Example 48, 2-[4-(N-methyl-2,3-dihydrobenzisoxazinylsulfonyl)-piperazin-1-yl]-thiazole-5-carboxylic acid hydroxyamide]
- inhibition at 100 µM [1]: 89.4%
- % inhibition HDAC @ 100 μM [2]: 96%

Compound: CCCCS(=O)(=O)N1CCN(c2ncc(C(=O)NO)s2)CC1 [Example 53, 2-[4-(n-butylsulfonyl)piperazin-1-yl]-thiazole-5-carboxylic acid hydroxyamide]
- inhibition at 100 µM [1]: 89.9%
- % inhibition HDAC @ 100 μM [2]: 94%

Compound: Cc1ccccc1S(=O)(=O)N1CCN(c2ncc(C(=O)NO)s2)CC1 [Example 21, 2-[4-(2-methylphenylsulfonyl)piperazin-1-yl]-thiazole-5-carboxylic acid hydroxyamide]
- inhibition at 100 µM [1]: 97.1%
- % inhibition HDAC @ 100 μM [2]: 100%

Compound: O=C(NO)c1cnc(N2CCN(S(=O)(=O)c3ccc(Br)s3)CC2)s1 [Example 55, 2-{4-[(5-bromothien-2-yl)sulfonyl]piperazin-1-yl}-N-hydroxy-1,3-thiazole-5-carboxamide]
- inhibition at 100 µM [1]: 0%
- % inhibition HDAC @ 100 μM [2]: 9%

Compound: CS(=O)(=O)c1ccc(S(=O)(=O)N2CCN(c3ncc(C(=O)NO)s3)CC2)cc1 [Example 19, 2-[4-(4-methylsufonylphenylsulfonyl)-piperazin-1-yl]-thiazole-5-carboxylic acid hydroxyamide]
- inhibition at 100 µM [1]: 76.5%
- % inhibition HDAC @ 100 μM [2]: 99%

Compound: Cc1cccc(Cl)c1S(=O)(=O)N1CCN(c2ncc(C(=O)NO)s2)CC1 [Example 38]
- inhibition at 100 µM [1]: 97.8%
- % inhibition HDAC @ 100 μM [2]: 100%

Compound: CC(C)c1ccc(S(=O)(=O)N2CCN(c3ncc(C(=O)NO)s3)CC2)cc1 [Example 16, 2-[4-(4-isopropylphenylsulfonyl)-piperazin-1-yl]-thiazole-5-carboxylic acid hydroxyamide]
- inhibition at 100 µM [1]: 90.9%
- % inhibition HDAC @ 100 μM [2]: 100%

Compound: O=C(NO)c1cnc(N2CCN(S(=O)(=O)c3ccc(-c4ccccc4)cc3)CC2)s1 [Example 9, 2-[4-(biphenyl-4-sulfonyl)-piperazin-1-yl]-thiazole-5-carboxylic acid hydroxyamide]
- inhibition at 100 µM [1]: 97.7%
- % inhibition HDAC @ 100 μM [2]: 97%

Compound: Cc1cccc(S(=O)(=O)N2CCN(c3ncc(C(=O)NO)s3)CC2)c1 [Example 22, 2-[4-(3-methylphenylsulfonyl)-piperazin-1-yl]-thiazole-5-carboxylic acid hydroxyamide]
- inhibition at 100 µM [1]: 98%
- % inhibition HDAC @ 100 μM [2]: 100%

Compound: Cc1ccc(S(=O)(=O)N2CCN(c3ncc(C(=O)NO)s3)CC2)cc1 [Example 4, 2-[4-(4-toluene-4-sulfonyl)-piperazin-1-yl]-thiazole-5-carboxylic acid hydroxyamide]
- inhibition at 100 µM [1]: 95.4%
- % inhibition HDAC @ 100 μM [2]: 100%

Compound: O=C(NO)c1cnc(N2CCN(S(=O)(=O)CCc3ccccc3)CC2)s1 [Example 94, 2-[4-(phenethylsulfonyl)-piperazin-1-yl]-thiazole-5-carboxylic acid hydroxyamide]
- inhibition at 100 µM [1]: 90.6%
- % inhibition HDAC @ 100 μM [2]: 98%
